Molecular target: DLK (Homo sapiens (Human), UniProt Q12852)
Assay: DLK TR-FRET Inhibition Assay
Assay type: biochemical
Settings: N-terminally GST-tagged DLK (catalytic domain amino acid 1-520), MKK4 K131M substrate, 30 μM ATP; read-out: DLK HTRF Ki
Protocol: DLK kinase reactions (20 μL) containing 5 nM N-terminally GST-tagged DLK (catalytic domain amino acid 1-520) (Carna Bioscience), 40 nM N-terminally HIS tagged MKK4 K131M substrate, and 30 μM ATP in kinase reaction buffer (50 mM HEPES, pH 7.5, 0.01% Triton X-100, 0.01% Bovine γ-Globulins, 2 mM DTT, 10 mM MgCl2 and 1 mM EGTA), and testing compound 1:3 serial diluted starting at 20 uM were incubated at ambient temperature for 60 minutes in 384 well OptiPlate (Perkin Elmer). To quench kinase reactions and detect phosphorylated MKK4, 15 μL of TR-FRET antibody mixture containing 2 nM anti-phosphorylated MKK4 labeled with Europium cryptate (Cisbio) and 23 nM anti-HIS labeled with D2 (Cisbio) in detection buffer (25 mM Tris pH 7.5, 100 mM NaCl, 100 mM EDTA, 0.01% Tween-20, and 200 mM KF) was added to the reaction mixture. The detection mixture was incubated for 3 hours at ambient temperature and the TR-FRET was detected with an EnVision multilabel plate reader (Perkin-Elmer) using the LANCE/DELFIA Dual Enh label from Perkin-Elmer (excitation filter: UV2 (TRF) 320 and emission filters: APC 665 and Europium 615).

Chain of DLK (Q12852 1-520): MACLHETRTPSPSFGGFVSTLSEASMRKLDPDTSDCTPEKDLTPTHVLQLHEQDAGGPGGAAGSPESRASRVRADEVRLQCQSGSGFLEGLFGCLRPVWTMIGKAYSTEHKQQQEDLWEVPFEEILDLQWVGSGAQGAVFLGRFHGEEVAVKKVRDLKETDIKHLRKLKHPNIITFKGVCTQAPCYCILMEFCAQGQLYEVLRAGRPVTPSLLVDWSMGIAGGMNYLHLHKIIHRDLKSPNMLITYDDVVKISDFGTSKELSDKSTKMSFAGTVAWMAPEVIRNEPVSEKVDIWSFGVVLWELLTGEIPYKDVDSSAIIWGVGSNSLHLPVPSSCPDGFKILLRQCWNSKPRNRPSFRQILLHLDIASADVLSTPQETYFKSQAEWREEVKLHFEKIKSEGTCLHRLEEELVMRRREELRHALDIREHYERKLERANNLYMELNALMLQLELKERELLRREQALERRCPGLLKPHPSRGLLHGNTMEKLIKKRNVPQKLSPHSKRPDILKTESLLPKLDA

| Ki [nM] | SMILES |
| --- | --- |
| 1200 | CC1(C)OCCn2c1nc1c(N3CC4CC3C4)nc(-c3cnc(N)cn3)cc12 [Example 118, 5-(9-(2-azabicyclo[2.1.1]hexan-2-yl)-1,1-dimethyl-3,4-dihydro-1H-pyrido[3′,4′:4,5]imidazo[2,1-c][1,4]oxazin-7-yl)pyrazin-2-amine] |
| 149 | C[C@H]1Cn2c(nc3c(N4CC5CC4C5)nc(-c4cnc(N)nc4)nc32)C(C)(C)O1 (single isomer, unassigned) [Example 139] |
| 199 | CC1(C)OCCn2c1nc1c(N3CCC4CC43)nc(-c3cnc(N)nc3)nc12 (centres unmarked) [Example 7, 5-[1-(2-Aza-bicyclo[3.1.0]hex-2-yl)-8,8-dimethyl-5,6-dihydro-8H-7-oxa-2,4,4b,9-tetraaza-fluoren-3-yl]-pyrimidin-2-ylamine] |
| 131 | CC[C@@]1(C)OCCn2c1nc1c(N3CC4CC3C4)nc(-c3cnc(N)nc3)nc12 (single isomer, unassigned) [Example 93] |
| 32.2 | CC1(C)OCCn2c1nc1c(N3CC4CC3C4)nc(-c3cnc4[nH]cnc4c3)nc12 [Example 146] |
| 226 | Nc1ncc(-c2nc(C3CC3)c3nc4n(c3n2)CCOC42CCC2)cn1 [Example 115, 5-(4-cyclopropyl-8,9-dihydrospiro[[1,4]oxazino[4,3-e]purine-6,1′-cyclobutan]-2-yl)pyrimidin-2-amine] |
| 5.91 | CC1(C)OCCn2c1nc1c(N3CC(O)C3)nc(-c3cnc4[nH]cc(Cl)c4c3)nc12 [Example 40, 1-[3-(3-Chloro-1H-pyrrolo[2,3-b]pyridin-5-yl)-8,8-dimethyl-5,6-dihydro-8H-7-oxa-2,4,4b,9-tetraaza-fluoren-1-yl]-azetidin-3-ol] |
| 262 | CC1(C)OCCn2c1nc1c(N3CC4CC3CC4(F)F)nc(-c3cnc(N)nc3)nc12 (centres unmarked) [Example 11] |
| 328 | CC1(C)OCCn2c1nc1c(N3CC4CC4C3)nc(-c3cnc(N)nc3)nc12 (centres unmarked) [Example 5, 5-[1-(3-Aza-bicyclo[3.1.0]hex-3-yl)-8,8-dimethyl-5,6-dihydro-8H-7-oxa-2,4,4b,9-tetraaza-fluoren-3-yl]-pyrimidin-2-ylamine] |
| 239 | C[C@H]1OCCn2c1nc1c(N3CC4CC3C4)nc(-c3cnc(N)nc3)nc12 (single isomer, unassigned) [Example 108] |
| 245 | CC1(C)OCCn2c1nc1c(N3CCC(C(F)(F)F)C3)nc(-c3cnc(N)nc3)nc12 (centres unmarked) [Example 28, 5-[8,8-Dimethyl-1-(3-trifluoromethyl-pyrrolidin-1-yl)-5,6-dihydro-8H-7-oxa-2,4,4b,9-tetraaza-fluoren-3-yl]-pyrimidin-2-ylamine] |
| 424 | CC1(C)CN(c2nc(-c3cnc(N)nc3)nc3c2nc2n3CCOC2(C)C)C1 [Example 31, 5-[1-(3,3-Dimethyl-azetidin-1-yl)-8,8-dimethyl-5,6-dihydro-8H-7-oxa-2,4,4b,9-tetraaza-fluoren-3-yl]-pyrimidin-2-ylamine] |
| 211 | C[C@]1(C2CC2)OCCn2c1nc1c(C3CC3)nc(-c3cnc(N)nc3)nc12 (single isomer, unassigned) [Example 105] |
| 634 | CC1(C)OCCn2c1nc1c(OCC3CC3)nc(-c3cnc(N)nc3)nc12 [Example 86] |
| 157 | C[C@H]1COC(C)(C)c2nc3c(C4CC4)nc(-c4cnc(N)nc4)nc3n21 (single isomer, unassigned) [Example 102] |
| 687 | COC1CN(c2nc(-c3cnc(N)c(OC(F)F)c3)nc3c2nc2n3CCCOC2)C1 [Example 136, 3-(difluoromethoxy)-5-(4-(3-methoxyazetidin-1-yl)-6,8,9,10-tetrahydro-[1,4]oxazepino[4,3-e]purin-2-yl)pyridin-2-amine] |
| 39.5 | CC1(C)OCCn2c1nc1c(N3CC4CCC3C4)nc(-c3cnc4[nH]cnc4c3)nc12 (centres unmarked) [Example 147] |
| 14 | COc1nc(-c2cnc3[nH]cc(C(F)(F)F)c3c2)nc2c1nc1n2CCOC1(C)C [Example 87] |
| 270 | CC1(C)OCCn2c1nc1c(N3CCC4(COC4)C3)nc(-c3cnc(N)c(C(F)(F)F)c3)nc12 [Example 49, 5-[8,8-Dimethyl-1-(2-oxa-6-aza-spiro[3.4]oct-6-yl)-5,6-dihydro-8H-7-oxa-2,4,4b,9-tetraaza-fluoren-3-yl]-3-trifluoromethyl-pyridin-2-ylamine] |
| 493 | Cc1n[nH]c2ncc(-c3nc(N4CC5CC4C5)c4nc5n(c4n3)CCOC5(C)C)cc12 [Example 19, 1-(2-Aza-bicyclo[2.1.1]hex-2-yl)-8,8-dimethyl-3-(3-methyl-1H-pyrazolo[3,4-b]pyridin-5-yl)-5,6-dihydro-8H-7-oxa-2,4,4b,9-tetraaza-fluorene] |

| Ki [nM] | SMILES |
| --- | --- |
| 207 | CN(c1nc(-c2cnc(N)nc2)nc2c1nc1n2CCOC1(C)C)C1CC1 [Example 60, 2-(2-aminopyrimidin-5-yl)-N-cyclopropyl-N,6,6-trimethyl-8,9-dihydro-6H-[1,4]oxazino[4,3-e]purin-4-amine] |
| 87.7 | CN(c1nc(-c2cnc(N)nc2)nc2c1nc1n2CCOC1(C)C)C1CCC1 [Example 58, 2-(2-aminopyrimidin-5-yl)-N-cyclobutyl-N,6,6-trimethyl-8,9-dihydro-6H-[1,4]oxazino[4,3-e]purin-4-amine] |
| 297 | COc1cc(-c2nc(N3CCC(F)(F)C3)c3nc4n(c3n2)CCOC4(C)C)cnc1N [Example 73, 5-(4-(3,3-difluoropyrrolidin-1-yl)-6,6-dimethyl-8,9-dihydro-6H-[1,4]oxazino[4,3-e]purin-2-yl)-3-methoxypyridin-2-amine] |
| 112 | CC(C)c1c[nH]c2ncc(-c3nc(N4CCC(F)(F)C4)c4nc5n(c4n3)CCOC5(C)C)cc12 [Example 75] |
| 281 | Nc1ncc(-c2nc(N3CC4CC3C4)c3nc4n(c3n2)CCCOC4)cn1 [Example 132, 5-(4-(2-azabicyclo[2.1.1]hexan-2-yl)-6,8,9,10-tetrahydro-[1,4]oxazepino[4,3-e]purin-2-yl)pyrimidin-2-amine] |
| 392 | CO[C@H]1CC2CC1CN2c1nc(-c2cnc(N)nc2)nc2c1nc1n2CCOC1(C)C (single isomer, unassigned) [Example 141] |
| 269 | CC(C)Oc1cc(-c2nc(N3CCC(F)(F)C3)c3nc4n(c3n2)CCOC4(C)C)cnc1N [Example 79] |
| 104 | CC(C)Oc1cc(-c2nc(N3CC(F)(F)C3)c3nc4n(c3n2)CCOC4(C)C)cnc1N [Example 71] |
| 1300 | CNc1ncc(-c2nc(N3CC4CC3C4)c3nc4n(c3n2)CCOC4(C)C)cn1 [Example 47] |
| 478 | CC1(C)OCCn2c1nc1c(N3CC4CC3C4)nc(-c3cncc(C(F)(F)F)c3)nc12 [Example 92, 4-(2-azabicyclo[2.1.1]hexan-2-yl)-6,6-dimethyl-2-(5-(trifluoromethyl)pyridin-3-yl)-8,9-dihydro-6H-[1,4]oxazino[4,3-e]purine] |
| 261 | C[C@@H]1O[C@@H](C)Cn2c1nc1c(N3CC4CC3C4)nc(-c3cnc(N)nc3)nc12 [Example 153] |
| 406 | CC(C)Oc1cc(-c2nc(N3CC4CC3C4)c3nc4n(c3n2)CCOC4(C)C)cnc1N [Example 22, 5-[1-(2-Aza-bicyclo[2.1.1]hex-2-yl)-8,8-dimethyl-5,6-dihydro-8H-7-oxa-2,4,4b,9-tetraaza-fluoren-3-yl]-3-isopropoxy-pyridin-2-ylamine] |
| 250 | CCN(c1nc(-c2cnc(N)nc2)nc2c1nc1n2CCOC1(C)C)C1CC1 [Example 61, 2-(2-aminopyrimidin-5-yl)-N-cyclopropyl-N-ethyl-6,6-dimethyl-8,9-dihydro-6H-[1,4]oxazino[4,3-e]purin-4-amine] |
| 626 | CC1(C)OCCn2c1nc1c(C3CC3)nc(-c3cnc4c(c3)CCN4)nc12 [Example 125, 4-cyclopropyl-2-(2,3-dihydro-1H-pyrrolo[2,3-b]pyridin-5-yl)-6,6-dimethyl-8,9-dihydro-6H-[1,4]oxazino[4,3-e]purine] |
| 279 | CCOc1cc(-c2nc(N3CC4CC3C4)c3nc4n(c3n2)CCOC4(C)C)cnc1N [Example 21, 5-[1-(2-Aza-bicyclo[2.1.1]hex-2-yl)-8,8-dimethyl-5,6-dihydro-8H-7-oxa-2,4,4b,9-tetraaza-fluoren-3-yl]-3-ethoxy-pyridin-2-ylamine] |
| 480 | CC1(C)OCCn2c1nc1c(N3CC(F)(F)C3)nc(-c3cnc(N)nc3)nc12 [Example 68] |
| 2.23 | CC1(C)OCCn2c1nc1c(N3CC4CC3C4)nc(-c3cnc(N)c(C#N)c3)cc12 [Example 144] |
| 6.49 | COC1CN(c2nc(-c3cnc4[nH]cc(C(F)(F)F)c4c3)nc3c2nc2n3CCCOC2)C1 [Example 145] |
| 11.9 | Cc1c[nH]c2ncc(-c3nc(N4CC(F)(F)C4)c4nc5n(c4n3)CCOC5(C)C)cc12 [Example 66] |
| 192 | CC1(C)OCCn2c1nc1c(NC3CC3)nc(-c3cnc(N)nc3)nc12 [Example 59, 2-(2-aminopyrimidin-5-yl)-N-cyclopropyl-6,6-dimethyl-8,9-dihydro-6H-[1,4]oxazino[4,3-e]purin-4-amine] |

| SMILES | Ki [nM] |
| --- | --- |
| CC1(C)OCCn2c1nc1c(N3C4CCC3CC4)nc(-c3cnc(N)nc3)nc12 [Example 56, 5-(4-(7-azabicyclo[2.2.1]heptan-7-yl)-6,6-dimethyl-8,9-dihydro-6H-[1,4]oxazino[4,3-e]purin-2-yl)pyrimidin-2-amine] | 339 |

— patent US10131675B2 (Genentech, Inc., priority 2015, dated 2018)
